Reference: ChEMBL document CHEMBL1136586, “Structure-activity relationship of linear peptide Bu-His6-DPhe7-Arg8-Trp9-Gly10-NH2 at the human melanocortin-1 and -4 receptors: DPhe7 and Trp9 substitution” (Bioorg Med Chem Lett, 2003)
Square brackets hold non-standard residues; d marks the D form. Peptide text beside a SMILES is read from it. * marks the point of attachment. Phe(3-CF3) = N[C@@H](Cc1cccc(C(F)(F)F)c1)C(=O)O; Phe(4-Br) = N[C@@H](Cc1ccc(Br)cc1)C(=O)O; Phe(4-Cl) = N[C@@H](Cc1ccc(Cl)cc1)C(=O)O; Phe(4-Me) = Cc1ccc(C[C@H](N)C(=O)O)cc1; Butyryl = CCCC(=O)*

What was measured:
[1] = molecular target: T1, Melanocyte-stimulating hormone receptor (Homo sapiens, UniProt Q01726); test: Inhibitory concentration of compound was determined against hMC1R through displacement of NDP-MSH radioligand using HEK293 cells; format: cell-based
[2] = molecular target: T2, Melanocortin receptor 4 (Homo sapiens, UniProt P32245); test: (§1) Effective concentration against hMC4R using HEK293 cells was determined by measuring cAMP accumulation; format: functional, cell-based
[3] = molecular target: T1, Melanocyte-stimulating hormone receptor; test: Effective concentration against hMC1R using HEK293 cells was determined by measuring the cAMP accumulation; format: functional, cell-based
[4] = molecular target: T2, Melanocortin receptor 4; test: Inhibitory concentration of compound was determined against hMC4R through displacement of NDP-MSH radioligand using HEK293 cells; format: cell-based
[5] = molecular target: T2, Melanocortin receptor 4; test: (§2) Effective concentration against hMC4R using HEK293 cells was determined by measuring cAMP accumulation at 50 uM; format: functional, cell-based
[6] = molecular target: T2, Melanocortin receptor 4; test: as §2; format: functional, cell-based; remark: listed apart in the source
[7] = molecular target: T2, Melanocortin receptor 4; test: as §1; format: functional, cell-based; remark: listed apart in the source

T1 sequence (Q01726 whole entry): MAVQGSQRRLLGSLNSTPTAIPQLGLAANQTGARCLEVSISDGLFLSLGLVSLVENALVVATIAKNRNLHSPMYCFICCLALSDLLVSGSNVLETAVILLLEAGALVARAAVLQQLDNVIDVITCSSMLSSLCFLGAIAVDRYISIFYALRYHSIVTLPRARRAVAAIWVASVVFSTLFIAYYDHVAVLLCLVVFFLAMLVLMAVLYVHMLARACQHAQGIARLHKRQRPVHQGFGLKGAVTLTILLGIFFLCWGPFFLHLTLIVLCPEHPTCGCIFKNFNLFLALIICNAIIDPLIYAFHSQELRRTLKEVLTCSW
T2 sequence (P32245 whole entry): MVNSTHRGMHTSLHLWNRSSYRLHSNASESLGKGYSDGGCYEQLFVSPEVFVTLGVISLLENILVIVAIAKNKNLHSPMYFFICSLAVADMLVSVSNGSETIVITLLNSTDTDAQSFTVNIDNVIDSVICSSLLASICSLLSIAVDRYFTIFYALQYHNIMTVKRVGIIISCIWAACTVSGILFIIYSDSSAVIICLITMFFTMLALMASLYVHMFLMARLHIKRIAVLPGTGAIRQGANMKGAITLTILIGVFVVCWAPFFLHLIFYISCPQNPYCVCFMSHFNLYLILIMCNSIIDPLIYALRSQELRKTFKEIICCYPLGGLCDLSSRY

| SMILES | IC50 [1] | EC50 [2] | EC50 [3] | IC50 [4] | EC50 [5] | inhibition [6] | ED50 [7] |
| --- | --- | --- | --- | --- | --- | --- | --- |
| CCCC(=O)N[C@@H](Cc1cnc[nH]1)C(=O)N[C@@H](Cc1cccc(C(F)(F)F)c1)C(=O)N[C@@H](CCCNC(=N)N)C(=O)N[C@@H](Cc1c[nH]c2ccccc12)C(=O)NCC(N)=O (Butyryl-H[Phe(3-CF3)]RWG-NH2) | 9600 nM | 45 nM | 611 nM | 300 nM |  |  |  |
| CCCC(=O)N[C@@H](Cc1c[nH]cn1)C(=O)NC(Cc1cccs1)C(=O)N[C@@H](CCCN=C(N)N)C(=O)N[C@@H](Cc1c[nH]c2ccccc12)C(=O)NCC(N)=O (single isomer, unassigned) |  |  | 4 nM |  | 8 nM |  |  |
| CCCC(=O)N[C@@H](Cc1cnc[nH]1)C(=O)N[C@@H](Cc1ccccc1)C(=O)N[C@@H](CCCNC(=N)N)C(=O)N[C@@H](Cc1c[nH]c2ccccc12)C(=O)NCC(N)=O | 575 nM | 20 nM | 10 nM | 150 nM |  |  |  |
| CCCC(=O)N[C@@H](Cc1c[nH]cn1)C(=O)NC(Cc1ccccc1)C(=O)N[C@@H](CCCN=C(N)N)C(=O)NC(Cc1c[nH]c2ccccc12)C(=O)NCC(N)=O (single isomer, unassigned) |  |  | 110 nM |  | 110 nM |  |  |
| CCCC(=O)N[C@@H](Cc1c[nH]cn1)C(=O)N[C@H](Cc1ccc2ccccc2c1)C(=O)N[C@@H](CCCN=C(N)N)C(=O)N[C@@H](Cc1c[nH]c2ccccc12)C(=O)NCC(N)=O | 5000 nM |  | 48 nM | 30 nM |  | 0% |  |
| CCCC(=O)N[C@@H](Cc1c[nH]cn1)C(=O)N[C@H](Cc1cccc2ccccc12)C(=O)N[C@@H](CCCN=C(N)N)C(=O)N[C@@H](Cc1c[nH]c2ccccc12)C(=O)NCC(N)=O | 4000 nM | 65 nM | 30 nM | 350 nM |  |  |  |
| CCCC(=O)N[C@@H](Cc1c[nH]cn1)C(=O)NC(Cc1ccccc1)C(=O)N[C@@H](CCCN=C(N)N)C(=O)N[C@@H](Cc1ccc(Cl)c(Cl)c1)C(=O)NCC(N)=O (single isomer, unassigned) |  |  | 1 nM |  |  |  | 194 nM |
| CCCC(=O)N[C@@H](Cc1c[nH]cn1)C(=O)NC(Cc1ccccc1)C(=O)N[C@@H](CCCN=C(N)N)C(=O)N[C@@H](Cc1cccc2ccccc12)C(=O)NCC(N)=O (single isomer, unassigned) | 1200 nM | 140 nM | 150 nM | 600 nM |  |  |  |
| CCCC(=O)N[C@@H](Cc1cnc[nH]1)C(=O)N[C@@H](Cc1ccc(O)cc1)C(=O)N[C@@H](CCCNC(=N)N)C(=O)N[C@@H](Cc1c[nH]c2ccccc12)C(=O)NCC(N)=O (Butyryl-HYRWG-NH2) |  | 1150 nM | 180 nM |  |  |  |  |
| CCCC(=O)N[C@@H](Cc1c[nH]cn1)C(=O)N[C@@H](Cc1ccc(OC)cc1)C(=O)N[C@@H](CCCN=C(N)N)C(=O)N[C@@H](Cc1c[nH]c2ccccc12)C(=O)NCC(N)=O (Butyryl-HY(Me)RWG-NH2) | 70 nM | 60 nM | 0.4 nM | 120 nM |  |  |  |
| CCCC(=O)N[C@@H](Cc1cnc[nH]1)C(=O)N[C@@H](Cc1ccc(Cl)cc1)C(=O)N[C@@H](CCCNC(=N)N)C(=O)N[C@@H](Cc1c[nH]c2ccccc12)C(=O)NCC(N)=O (Butyryl-H[Phe(4-Cl)]RWG-NH2) | 300 nM | 20 nM | 20 nM | 80 nM |  |  |  |
| CCCC(=O)N[C@@H](Cc1c[nH]cn1)C(=O)NC(Cc1ccccc1)C(=O)N[C@@H](CCCN=C(N)N)C(=O)N[C@@H](Cc1ccc2ccccc2c1)C(=O)NCC(N)=O (single isomer, unassigned) | 600 nM | 25 nM | 14 nM | 50 nM |  |  |  |

Continued by falling EC50 [3], values first:

| IC50 [1] | EC50 [2] | EC50 [3] | IC50 [4] | EC50 [5] | inhibition [6] | ED50 [7] | SMILES |
| --- | --- | --- | --- | --- | --- | --- | --- |
| 2880 nM | 100 nM | 274 nM | 1000 nM |  |  |  | CCCC(=O)N[C@@H](Cc1cnc[nH]1)C(=O)N[C@H](Cc1ccccc1)C(=O)N[C@@H](CCCNC(=N)N)C(=O)N[C@@H](Cc1csc2ccccc12)C(=O)NCC(N)=O |
|  | 77 nM | 55 nM |  |  |  |  | CCCC(=O)N[C@@H](Cc1cnc[nH]1)C(=O)N[C@@H](Cc1ccc(C)cc1)C(=O)N[C@@H](CCCNC(=N)N)C(=O)N[C@@H](Cc1c[nH]c2ccccc12)C(=O)NCC(N)=O (Butyryl-H[Phe(4-Me)]RWG-NH2) |
| 300 nM | 13 nM | 54 nM | 22 nM |  |  |  | CCCC(=O)N[C@@H](Cc1c[nH]cn1)C(=O)N[C@@H](Cc1ccc(Br)cc1)C(=O)N[C@@H](CCCN=C(N)N)C(=O)N[C@@H](Cc1c[nH]c2ccccc12)C(=O)NCC(N)=O (Butyryl-H[Phe(4-Br)]RWG-NH2) |
| 250 nM |  | 10 nM | 4 nM |  | 0% |  | CCCC(=O)N[C@@H](Cc1c[nH]cn1)C(=O)N[C@H](Cc1ccc(Cl)c(Cl)c1)C(=O)N[C@@H](CCCN=C(N)N)C(=O)N[C@@H](Cc1c[nH]c2ccccc12)C(=O)NCC(N)=O |
| 16 nM | 16 nM | 0.1 nM | 100 nM |  |  |  | CCCC(=O)N[C@@H](Cc1c[nH]cn1)C(=O)NC(Cc1ccc(OCC)cc1)C(=O)N[C@@H](CCCN=C(N)N)C(=O)N[C@@H](Cc1c[nH]c2ccccc12)C(=O)NCC(N)=O (single isomer, unassigned) |
